In one test the target is T1, Androgen receptor (Homo sapiens, UniProt P10275).
T1 sequence (P10275 whole entry): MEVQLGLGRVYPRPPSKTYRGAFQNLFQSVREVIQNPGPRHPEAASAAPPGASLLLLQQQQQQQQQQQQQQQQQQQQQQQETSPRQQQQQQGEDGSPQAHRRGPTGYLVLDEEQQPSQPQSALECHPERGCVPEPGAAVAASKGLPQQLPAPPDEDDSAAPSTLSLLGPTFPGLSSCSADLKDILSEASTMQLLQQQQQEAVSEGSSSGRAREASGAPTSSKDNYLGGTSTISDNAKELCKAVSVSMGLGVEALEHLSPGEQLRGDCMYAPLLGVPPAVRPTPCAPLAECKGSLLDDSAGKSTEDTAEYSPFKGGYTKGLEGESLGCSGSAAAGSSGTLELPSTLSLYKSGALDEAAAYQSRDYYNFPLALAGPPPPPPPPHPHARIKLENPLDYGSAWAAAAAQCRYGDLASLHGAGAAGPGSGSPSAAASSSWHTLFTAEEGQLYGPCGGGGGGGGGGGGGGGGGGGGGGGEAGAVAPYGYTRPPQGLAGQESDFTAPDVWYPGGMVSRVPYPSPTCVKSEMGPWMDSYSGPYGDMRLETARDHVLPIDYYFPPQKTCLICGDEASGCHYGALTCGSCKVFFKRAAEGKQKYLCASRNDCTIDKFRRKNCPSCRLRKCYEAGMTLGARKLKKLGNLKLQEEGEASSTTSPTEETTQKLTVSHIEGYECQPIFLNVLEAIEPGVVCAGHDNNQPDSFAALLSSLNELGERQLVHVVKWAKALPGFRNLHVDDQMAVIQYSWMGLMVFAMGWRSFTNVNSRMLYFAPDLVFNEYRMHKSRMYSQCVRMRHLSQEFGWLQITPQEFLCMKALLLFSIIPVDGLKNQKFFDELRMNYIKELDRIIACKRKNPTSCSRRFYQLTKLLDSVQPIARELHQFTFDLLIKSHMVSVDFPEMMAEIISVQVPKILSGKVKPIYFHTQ
In words: Antagonist activity at human androgen receptor LBD expressed in human MDA-kb2 cells by luciferase reporter gene assay. The test is classed as cell-based. (In general: In a reporter assay the amount or activity of a reporter protein is the signal.)

Test [1] has as its target T2, Androgen receptor (Homo sapiens) (UniProt P10275).
T2 sequence (whole entry): T1 sequence (P10275 whole entry)
Kind of test: Competitive reversible inhibition of human androgen receptor LBD expressed in human […] cells at IC10 to IC70 in presence of […]. The format is cell-based.

The source made the active and inactive calls. The rule behind the calls is not given here.

Take `Cc1ccc(-c2cc(=O)c3c(O)cccc3o2)cc1`: the IC50 is 11100 nM on Androgen receptor (read-out: IC50) and 11200 nM on Androgen receptor (read-out: pIC50 (converted)).
The corresponding values for `O=c1cc(-c2ccc(O)cc2)oc2cccc(O)c12` are 860 nM and 851 nM.
Taken in the same sequence, the figures for `CSc1ccc(-c2cc(=O)c3c(O)cccc3o2)cc1` were 1070 nM and 1070 nM.
Regarding `O=c1cc(-c2ccc(Cl)cc2)oc2cccc(F)c12`, the results for the IC50 on Androgen receptor (read-out: IC50) and at Androgen receptor (read-out: pIC50 (converted)) were 360 nM and 363 nM, respectively.
The corresponding values for `CN(C)c1ccc(-c2cc(=O)c3c(O)cccc3o2)cc1` are 850 nM and 851 nM.
With `N#Cc1ccc(-c2cc(=O)c3c(F)cccc3o2)cc1`, the IC50 at Androgen receptor (read-out: IC50) and at Androgen receptor (read-out: pIC50 (converted)) was 1200 nM each time.
With `O=c1cc(-c2ccc(C(F)(F)F)cc2)oc2cccc(O)c12`, the IC50 at Androgen receptor (read-out: IC50) was 1240 nM; at Androgen receptor (read-out: pIC50 (converted)), 1230 nM.
The corresponding values for `COc1cccc2oc(-c3ccc(F)cc3)cc(=O)c12` are 1610 nM and 1620 nM.
Taken in the same sequence, the figures for `O=c1cc(-c2ccc([N+](=O)[O-])cc2)oc2cccc(O)c12` were 360 nM and 363 nM.
For `O=c1cc(-c2ccc(F)cc2)oc2cccc(F)c12`, the inhibition entry in test [1] is “Active”. In addition, the figures for the IC50 on Androgen receptor (read-out: IC50) and at Androgen receptor (read-out: pIC50 (converted)) were 190 nM and 191 nM, respectively.
Take `N#Cc1ccc(-c2cc(=O)c3c(O)cccc3o2)cc1`: the IC50 at Androgen receptor (read-out: IC50) was 250 nM; on Androgen receptor (read-out: pIC50 (converted)) it was 251 nM.
The corresponding values for `NC(=O)c1ccc(-c2cc(=O)c3c(O)cccc3o2)cc1` are 3580 nM and 3550 nM.
The corresponding values for `Nc1ccc(-c2cc(=O)c3c(O)cccc3o2)cc1` are 1990 nM and 2000 nM.
Turning to `O=c1cc(-c2ccccc2)oc2cccc(F)c12`, the IC50 on Androgen receptor (read-out: IC50) was 770 nM; at Androgen receptor (read-out: pIC50 (converted)), 776 nM.
The corresponding values for `O=c1cc(-c2ccc(Cl)cc2)oc2cccc(O)c12` are 460 nM and 457 nM.
Taken in the same sequence, the figures for `O=c1cc(-c2ccc(F)cc2)oc2cccc(O)c12` were 330 nM and 331 nM.
